Source: patent US20210161134A1, “HERBICIDE AND METHOD OF APPLYING A HERBICIDE” (priority 2015, published 2021)
Read-outs that look alike come from different tables or passages of the source.

Key:
dandilions = assay: Killing of dandelions by amino acid herbicide; format: in vivo, dandelion
hoary alssum = assay: Killing of hoary alyssum by amino acid; format: in vivo
leafy spurge = assay: Killing of leafy spurge by amino acids; format: in vivo
morning glories = assay: Killing of morning glories by amino acid; format: in vivo
common yarroen = assay: Killing of common yarrow by amino acid; format: in vivo
hounds tongue = assay: Killing of hounds tongue by amino acid; format: in vivo
Rush Skeleton weed = assay: Killing of rush skeleton weed by amino acid (FIG. 3); format: in vivo
wild rubarb = assay: Killing of wild rhubarb by amino acid; format: in vivo
Field Bindweed = assay: Killing of field bindweed by amino acid (FIG. 4); format: in vivo
Canada thistle = assay: Killing of Canada thistle by amino acid herbicide (FIG. 1)
Spotted Knapweed = assay: Killing of spotted knapweed by amino acids; format: in vivo

NCCCC[C@H](N)C(=O)O [L-Lysine]
kill of the weed (dandilions): kill
kill of the weed (hoary alssum): kill
kill of the weed (leafy spurge): kill
kill of the weed (morning glories): kill
kill of the weed (common yarroen): kill
kill of the weed (hounds tongue): kill
kill of the weed (Rush Skeleton weed): kill
kill of the weed (Rush Skeleton weed; listed as Lysine): killed
kill of the weed (wild rubarb): kill
kill of the weed (Field Bindweed): killed
kill of the weed (Canada thistle): kill
kill of the weed (Canada thistle; listed as lysine): kills the plant

CSCC[C@H](N)C(=O)O [L-methionine]
kill of the weed (Kudzu): kill
kill of the weed (Kudzu; listed as Methionine): killed
kill of the weed (Spotted Knapweed): kill
kill of the weed (poa anna): kill
kill of the weed (eurasian milfoil): kill
kill of the weed (Canada thistle): kills the plant

CC(C)[C@H](N)C(=O)O [Valine]
kill of the weed (hounds tongue): killed
